Values quoted from earlier work in patent US7968712B2, “Process for the resolution of zopiclone and intermediate compounds” (Esteve Quimica, S.A., priority 2007, dated 2011).

Columns and labels:
[1] = compared with racemic zopiclone
[2] = compared with racemic zopiclone; remark: listed apart in the source

Row | Compound | activity relative to the racemate [1] | toxicity relative to the racemate [2]
1 | CN1CCN(C(=O)O[C@@H]2c3nccnc3C(=O)N2c2ccc(Cl)cn2)CC1 (single isomer, unassigned) [laevorotatory isomer] | almost inactive | more toxic than the racemate
2 | CN1CCN(C(=O)O[C@H]2c3nccnc3C(=O)N2c2ccc(Cl)cn2)CC1 [dextrorotatory enantiomer, eszopiclone] | – | lower toxicity than that of the racemate
